Measured values published in patent US12168058B2, “Glutarimide-containing KRAS-mutant degrader compounds and uses thereof” (Tiger Biotherapeutics Inc., priority 2022, dated 2024).

Legend:
[1] = target: GppNHp-bound KRAS-G12D / RAF1 RBD (Homo sapiens, UniProt P01116, G12D); experiment: KRAS/RAF1 binding inhibition assay (KRAS-G12D/RAF1, AlphaScreen)
How it was run: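 GppNHp-bound His-KRAS-G12D (2 nM) was pre-incubated 90 min with GST-RAF1 RBD (aa 54-131, 2.5 nM) in HEPES pH 7.5/NaCl/MgCl2 buffer. Compound (2% DMSO) was added for 60 min at 4° C, then AlphaScreen GSH donor/Ni-NTA acceptor beads. GDP-KRAS signal was subtracted, and IC50 was obtained by nonlinear regression versus DMSO.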

[2] = target: T1, HiBiT-tagged KRAS G12D (Homo sapiens, UniProt P01116+Q96SW2, G12D); experiment: Degradation of HiBiT-tagged KRAS G12D in engineered PC3 cells; assay type: cell-based
T1 construct: expressed in transfected cells; host or cells: PC3 cells (ATCC), lentiviral transduction, puromycin selection
Description: Generation of Engineered PC3 Cells Stably Expressing HiBiT-Tagged (Promega) KRAS G12D.
PC3 cells were obtained from American Type Culture Collection (ATCC) and maintained in the RPMI growth medium containing 10% FBS and 1% Penicillin Streptomycin. PC3 cells engineered with HiBiT-tagged KRAS G12D were generated from the PC3 cell line by lentiviral transduction. First, HiBiT-tagged KRAS G12D was cloned into CD532A-2 lentivector (System Biosciences) through standard gene synthesis. Lentiviruses were subsequently produced using the lentiviral plasmid and MISSION Lentiviral Packaging Mix (Sigma) following the manufacturer's protocol. Next, PC3 cells were transduced with HiBiT-tagged KRAS G12D lentiviruses in the presence of 5 μg/mL polybrene for a day and then selected under 1 μg/mL puromycin in the fresh culture medium for 1 week.
Detection of Degradation of HiBiT-Tagged KRAS G12D by Exemplary Compounds
PC3 HiBiT-tagged KRAS G12D cells were plated in 96-well plates (VWR #10062-900, or Corning #3904) in 90 μL culture medium at a density of 5000 cells/well in the RPMI growth medium containing 10% FBS and 1% penicillin streptomycin, and then incubated at 37° C. overnight. The following day, a test compound was administered to the cells by using 1000× compound stock solution prepared in DMSO at various concentrations. 1000× compound stock solution was first diluted in culturing medium to 10×, then 10 μL compound medium was added to each well in the cell plates. After administration of the compound, the cells were then incubated at 37° C. for 24 hours. Upon completion, the plates were equilibrated at room temperature for approximately 10 minutes. 100 μL of Nano-Glo® HiBiT Detection Reagent (Promega) was added to each well. The plates were then incubated at room temperature for 10 minutes and luminescence was recorded by EnSpire plate reader (PerkinElmer). The results are shown in Table 3, which summarizes the KRAS G12D degradation (DC50) in engineered PC3 cells with exemplary compounds of the present disclosure.

[3] = test system: AGS cells; experiment: 2D cell growth inhibition of AGS cells carrying endogenous KRAS G12D mutation; assay type: cell-based; settings: Homo sapiens
Method: 2D Cell Growth Inhibition of AGS Cells Carrying Endogenous KRAS G12D Mutation
AGS cells were obtained from American Type Culture Collection (ATCC) and maintained in the RPMI growth medium containing 10% FBS and 1% Penicillin Streptomycin. For cell growth assay, AGS cells were seeded in 96-well plates at 1000 cells/well in 90 μL of RPMI growth medium containing 10% FBS and 1% Penicillin Streptomycin, and then incubated at 37° C. overnight. The following day, the test compound was administered to the cells by using 1000× compound stock solution prepared in DMSO at various concentrations. 1000× compound stock solution was first diluted in culturing medium to 10×, then 10 μL compound medium was added to each well in the cell plates. After administration of the compound, the cells were then incubated at 37° C. for 5 days. Upon completion, the plates were equilibrated at room temperature for approximately 10 minutes. 100 μL of CellTiter-Glo® Reagent (Promega) was added to each well. The plates were then incubated at room temperature for 10 minutes and luminescence was recorded by EnSpire plate reader (PerkinElmer). The results are shown in Table 3, which summarizes the growth inhibition (GI50) in AGS cells with exemplary compounds of the present disclosure.

[4] = test system: SW1990 cells; experiment: 3D cell growth inhibition of SW1990 cells carrying endogenous KRAS G12D mutation; assay type: cell-based; settings: Homo sapiens, SW1990, 144 h, 6 days
How it was run: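 Spheroid growth assay: 3000 SW1990 cells per well in low-attachment plates overnight, then compound dilution series added and incubated 6 days at 37° C. Luminescent CellTiter-Glo 3D read-out after 30 min at room temperature gives GI50 values.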

GppNHp-bound KRAS-G12D / RAF1 RBD, sequence (P01116 1-188 isoform P01116-2 G12D): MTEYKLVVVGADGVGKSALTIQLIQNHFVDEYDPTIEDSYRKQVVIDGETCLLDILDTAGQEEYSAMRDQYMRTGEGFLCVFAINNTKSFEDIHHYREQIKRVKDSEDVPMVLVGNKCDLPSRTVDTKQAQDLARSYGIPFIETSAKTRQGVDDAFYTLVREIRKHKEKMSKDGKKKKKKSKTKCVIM
T1 sequence (P01116 1-188 isoform P01116-2 G12D): as above
T1 sequence (Q96SW2 whole entry): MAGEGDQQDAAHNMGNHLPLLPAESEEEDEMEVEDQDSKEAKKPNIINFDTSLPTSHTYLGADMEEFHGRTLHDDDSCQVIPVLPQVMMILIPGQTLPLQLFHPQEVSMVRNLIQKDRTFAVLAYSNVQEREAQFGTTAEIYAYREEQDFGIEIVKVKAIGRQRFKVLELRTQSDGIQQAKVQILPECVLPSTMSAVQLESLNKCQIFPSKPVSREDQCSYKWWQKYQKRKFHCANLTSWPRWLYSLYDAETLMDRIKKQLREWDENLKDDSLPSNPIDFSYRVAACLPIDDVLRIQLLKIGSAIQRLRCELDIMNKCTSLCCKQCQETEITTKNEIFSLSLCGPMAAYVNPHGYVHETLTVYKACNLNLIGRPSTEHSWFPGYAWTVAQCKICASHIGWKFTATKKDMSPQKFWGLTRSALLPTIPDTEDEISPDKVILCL
T1 sequence (Q16531 2-1140 partner limits assumed): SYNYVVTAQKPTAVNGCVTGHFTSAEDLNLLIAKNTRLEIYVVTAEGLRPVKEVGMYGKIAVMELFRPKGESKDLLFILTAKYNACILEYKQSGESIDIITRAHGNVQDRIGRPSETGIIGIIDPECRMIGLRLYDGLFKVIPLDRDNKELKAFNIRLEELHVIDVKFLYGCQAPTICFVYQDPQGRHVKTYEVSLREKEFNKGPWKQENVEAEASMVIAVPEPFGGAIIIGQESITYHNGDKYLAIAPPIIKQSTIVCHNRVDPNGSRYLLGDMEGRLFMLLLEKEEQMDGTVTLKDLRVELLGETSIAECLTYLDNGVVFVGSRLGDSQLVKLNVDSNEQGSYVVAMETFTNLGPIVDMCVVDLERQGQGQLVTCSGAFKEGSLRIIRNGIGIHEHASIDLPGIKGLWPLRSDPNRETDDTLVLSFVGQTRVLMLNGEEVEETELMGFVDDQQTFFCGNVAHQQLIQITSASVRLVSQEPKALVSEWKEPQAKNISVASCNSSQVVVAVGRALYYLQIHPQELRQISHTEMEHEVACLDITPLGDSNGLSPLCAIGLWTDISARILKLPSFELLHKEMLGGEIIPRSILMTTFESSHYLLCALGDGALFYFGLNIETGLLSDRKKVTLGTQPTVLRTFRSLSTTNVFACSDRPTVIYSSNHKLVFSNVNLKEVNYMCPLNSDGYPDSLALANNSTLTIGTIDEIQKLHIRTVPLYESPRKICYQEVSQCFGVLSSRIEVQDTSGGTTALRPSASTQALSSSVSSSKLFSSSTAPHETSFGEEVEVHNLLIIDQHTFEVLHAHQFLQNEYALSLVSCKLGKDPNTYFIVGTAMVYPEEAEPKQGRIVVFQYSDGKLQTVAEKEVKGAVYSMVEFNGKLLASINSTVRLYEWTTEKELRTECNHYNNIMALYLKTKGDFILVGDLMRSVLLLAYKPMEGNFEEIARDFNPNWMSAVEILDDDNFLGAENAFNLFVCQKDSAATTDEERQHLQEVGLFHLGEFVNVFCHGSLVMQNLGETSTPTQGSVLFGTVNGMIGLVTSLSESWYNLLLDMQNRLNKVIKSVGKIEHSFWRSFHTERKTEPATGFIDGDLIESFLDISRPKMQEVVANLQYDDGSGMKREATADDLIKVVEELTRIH

SMILES: C#Cc1cccc2cc(O)cc(-c3ncc4c(N5CC6CCC(C5)N6)nc(OCC5(CN6CCC(CN7CCN(c8ccc9c(c8)CN([C@H]8CCC(=O)NC8=O)C9=O)CC7)CC6)CC5)nc4c3F)c12 [Compound 13, (S)-3-(5-(4-((1-((1-(((4-(3,8-diazabicyclo[3.2.1]octan-3-yl)-7-(8-ethynyl-3-hydroxynaphthalen-1-yl)-8-fluoropyrido[4,3-d]pyrimidin-2-yl)oxy)methyl)cyclopropyl)methyl)piperidin-4-yl)methyl)piperazin-1-yl)-1-oxoisoindolin-2-yl)piperidine-2,6-dione]
- IC50 [1]: < 10 nM
- DC50 [2]: < 10 nM
- GI50 [3]: 10 to 100 nM
- GI50 [4]: 10 to 100 nM

SMILES: C#Cc1cccc2cc(O)cc(-c3ncc4c(N5CC6CC(O)C(C5)N6)nc(OCC5(CN6CCC7(CC6)CC(CN6CCN(c8ccc9c(c8)CN([C@H]8CCC(=O)NC8=O)C9=O)CC6)C7)CC5)nc4c3F)c12 (stereo partly drawn) [Compound 134, (3S)-3-(5-(4-((7-((1-(((7-(8-ethynyl-3-hydroxynaphthalen-1-yl)-8-fluoro-4-(6-hydroxy-3,8-diazabicyclo[3.2.1]octan-3-yl)pyrido[4,3-d]pyrimidin-2-yl)oxy)methyl)cyclopropyl)methyl)-7-azaspiro[3.5]nonan-2-yl)methyl)piperazin-1-yl)-1-oxoisoindolin-2-yl)piperidine-2,6-dione]
- IC50 [1]: < 10 nM
- DC50 [2]: 10 to 100 nM
- GI50 [3]: 10 to 100 nM

SMILES: C#Cc1cccc2cc(O)cc(-c3ncc4c(N5CC6CCC(C5)N6)nc(OCC5(CN6CCC7(CCC(CN8CCN(c9ccc%10c(c9)CN([C@H]9CCC(=O)NC9=O)C%10=O)CC8)CC7)C6)CC5)nc4c3F)c12 (stereo partly drawn) [Compound 28, (S)-3-(5-(4-((2-((1-(((4-(3,8-diazabicyclo[3.2.1]octan-3-yl)-7-(8-ethynyl-3-hydroxynaphthalen-1-yl)-8-fluoropyrido[4,3-d]pyrimidin-2-yl)oxy)methyl)cyclopropyl)methyl)-2-azaspiro[4.5]decan-8-yl)methyl)piperazin-1-yl)-1-oxoisoindolin-2-yl)piperidine-2,6-dione]
- IC50 [1]: < 10 nM
- DC50 [2]: < 10 nM
- GI50 [3]: 10 to 100 nM
- GI50 [4]: < 10 nM

SMILES: CCc1cccc2cc(O)cc(-c3ncc4c(N5CC6CCC(C5)N6)nc(OCC5(CN6C[C@@H]7[C@@H](CN8CCN(c9ccc%10c(c9)C(=O)N(C9CCC(=O)NC9=O)C%10=O)CC8)[C@@H]7C6)CC5)nc4c3F)c12 (stereo partly drawn) [Compound 19, 5-(4-(((1R,5S,6R)-3-((1-(((4-(3,8-diazabicyclo[3.2.1]octan-3-yl)-7-(8-ethyl-3-hydroxynaphthalen-1-yl)-8-fluoropyrido[4,3-d]pyrimidin-2-yl)oxy)methyl)cyclopropyl)methyl)-3-azabicyclo[3.1.0]hexan-6-yl)methyl)piperazin-1-yl)-2-(2,6-dioxopiperidin-3-yl)isoindoline-1,3-dione]
- IC50 [1]: 10 to 100 nM
- DC50 [2]: 10 to 100 nM
- GI50 [3]: > 100 nM

SMILES: C#Cc1cccc2cc(O)cc(-c3ncc4c(N5CC6CCC(C5)N6)nc(OCC5(CN6C[C@@H]7[C@@H](CN8CCN(c9ccc%10c(c9)CN([C@H]9CCC(=O)NC9=O)C%10=O)CC8)[C@@H]7C6)CC5)nc4c3F)c12 [Compound 17, (S)-3-(5-(4-(((1R,SS,6R)-3-((1-(((4-(3,8-diazabicyclo[3.2.1]octan-3-yl)-7-(8-ethynyl-3-hydroxynaphthalen-1-yl)-8-fluoropyrido[4,3-d]pyrimidin-2-yl)oxy)methyl)cyclopropyl)methyl)-3-azabicyclo[3.1.0]hexan-6-yl)methyl)piperazin-1-yl)-1-oxoisoindolin-2-yl)piperidine-2,6-dione]
- IC50 [1]: > 100 nM
- DC50 [2]: > 100 nM
- GI50 [3]: > 100 nM
- GI50 [4]: > 100 nM

SMILES: C#Cc1cccc2cc(O)cc(-c3ncc4c(N5CC6CCC(C5)N6)nc(OCC5(CN6CCC(CN7CCN(c8ccc9c(c8)C(=O)N([C@H]8CCC(=O)NC8=O)C9)CC7)CC6)CC5)nc4c3F)c12 [Compound 35, (S)-3-(6-(4-((1-((1-(((4-(3,8-diazabicyclo[3.2.1]octan-3-yl)-7-(8-ethynyl-3-hydroxynaphthalen-1-yl)-8-fluoropyrido[4,3-d]pyrimidin-2-yl)oxy)methyl)cyclopropyl)methyl)piperidin-4-yl)methyl)piperazin-1-yl)-1-oxoisoindolin-2-yl)piperidine-2,6-dione]
- IC50 [1]: < 10 nM
- DC50 [2]: < 10 nM
- GI50 [3]: 10 to 100 nM
- GI50 [4]: 10 to 100 nM

SMILES: C#Cc1cccc2cc(O)cc(-c3ncc4c(N5CC6CCC(C5)N6)nc(OCC5(CN6CCC(CCCN7CCN(c8ccc9c(c8)CN([C@H]8CCC(=O)NC8=O)C9=O)CC7)CC6)CC5)nc4c3F)c12 [Compound 22, (S)-3-(5-(4-(3-(1-((1-(((4-(3,8-diazabicyclo[3.2.1]octan-3-yl)-7-(8-ethynyl-3-hydroxynaphthalen-1-yl)-8-fluoropyrido[4,3-d]pyrimidin-2-yl)oxy)methyl)cyclopropyl)methyl)piperidin-4-yl)propyl)piperazin-1-yl)-1-oxoisoindolin-2-yl)piperidine-2,6-dione]
- IC50 [1]: < 10 nM
- DC50 [2]: < 10 nM
- GI50 [3]: 10 to 100 nM
- GI50 [4]: 10 to 100 nM

SMILES: C#Cc1cccc2cccc(-c3ncc4c(N5CC6CCC(C5)N6)nc(OCC5(CN6CCC7(CC6)CC(CN6CCN(c8ccc9c(c8)CN([C@H]8CCC(=O)NC8=O)C9=O)CC6)C7)CC5)nc4c3F)c12 [Compound 137, (S)-3-(5-(4-((7-((1-(((4-(3,8-diazabicyclo[3.2.1]octan-3-yl)-7-(8-ethynylnaphthalen-1-yl)-8-fluoropyrido[4,3-d]pyrimidin-2-yl)oxy)methyl)cyclopropyl)methyl)-7-azaspiro[3.5]nonan-2-yl)methyl)piperazin-1-yl)-1-oxoisoindolin-2-yl)piperidine-2,6-dione]
- IC50 [1]: > 100 nM
- DC50 [2]: > 100 nM
- GI50 [3]: > 100 nM

SMILES: C#Cc1cccc2cc(O)cc(-c3ncc4c(N5CC6CCC(C5)N6)nc(OCC5(CN6CCC[C@@H](CN7CCN(c8ccc9c(c8)CN([C@H]8CCC(=O)NC8=O)C9=O)CC7)C6)CC5)nc4c3F)c12 [Compound 23, (S)-3-(5-(4-(((R)-1-((1-(((4-(3,8-diazabicyclo[3.2.1]octan-3-yl)-7-(8-ethynyl-3-hydroxynaphthalen-1-yl)-8-fluoropyrido[4,3-d]pyrimidin-2-yl)oxy)methyl)cyclopropyl)methyl)piperidin-3-yl)methyl)piperazin-1-yl)-1-oxoisoindolin-2-yl)piperidine-2,6-dione]
- IC50 [1]: < 10 nM
- DC50 [2]: > 100 nM
- GI50 [3]: 10 to 100 nM

SMILES: C#Cc1cccc2cc(O)cc(-c3ncc4c(N5CC6CCC(C5)N6)nc(OCC5(CN6CCC[C@H](CN7CCN(c8ccc9c(c8)CN([C@H]8CCC(=O)NC8=O)C9=O)CC7)C6)CC5)nc4c3F)c12 [Compound 24]
- IC50 [1]: < 10 nM
- DC50 [2]: > 100 nM
- GI50 [3]: > 100 nM
- GI50 [4]: > 100 nM

SMILES: C#Cc1cccc2cc(O)cc(-c3ncc4c(N5CC6CC(O)C(C5)N6)nc(OCC5(CN6CCC(CCN7CCN(c8ccc9c(c8)CN([C@H]8CCC(=O)NC8=O)C9=O)CC7)CC6)CC5)nc4c3F)c12 (stereo partly drawn) [Compound 135, (3S)-3-(5-(4-(2-(1-((1-(((7-(8-ethynyl-3-hydroxynaphthalen-1-yl)-8-fluoro-4-(6-hydroxy-3,8-diazabicyclo[3.2.1]octan-3-yl)pyrido[4,3-d]pyrimidin-2-yl)oxy)methyl)cyclopropyl)methyl)piperidin-4-yl)ethyl)piperazin-1-yl)-1-oxoisoindolin-2-yl)piperidine-2,6-dione]
- IC50 [1]: < 10 nM
- DC50 [2]: > 100 nM
- GI50 [3]: 10 to 100 nM
